Where two headings read alike, the source gives them in different places.
Assays:
[1] = Description: The procedure for the various conditions is set forth below.
Standard: 20 mg of sample was weighed and dissolved in a 50 mL volumetric flask, diluted to the required volume with diluents, and mixed well.
Acid Degradation: 20 mg of sample was weighed and placed in a 50 mL volumetric flask. 2 mL of 2.0 mol/L HCl was added to the flask. The flask was placed in a water bath at 40° C. for 7 days.
Alkaline Degradation: 20 mg of sample was weighed and placed in a 50 mL volumetric flask. 2 mL of 0.05 mol/L NaOH was added to the flask. The flask was stored at room temperature for 24 hours.
Oxidation: 20 mg of sample was weighed and placed in a 50 mL volumetric flask. 2 mL of 10% H2O2 was added to the flask. The flask was placed in a water bath at 40° C. for 44 hours.
Thermal Degradation (solution, 80° C.): 20 mg of sample was weighed and dissolved in a 50 mL volumetric flask, diluted to the required volume with diluents, and mixed well. The flask was placed in a water bath at 80° C. for 46 hours.
Thermal Degradation (solid, 80° C.): 120 mg of sample was placed in an oven at 80° C. for 7 days.
The appearance and purity of the samples were test.

[2] = no humidity
Description: The samples were prepared in a brown glass bottle with the outer packing being an aluminum foil bag, and the samples were stored between layers of dessicant silica gels. The appearance, residual material, purity, TGA, and DSC were analyzed each month.

[3] = Acid Degradation: 2.0 mol/L HCl, 40° C., 7 days
[4] = Alkaline Degradation: 0.05 mol/L NaOH, room temperature, 24 hours
[5] = Oxidation: 10% H2O2, 40° C., 44 hours
[6] = Thermal Degradation (solid): 80° C., 7 days
[7] = Thermal Degradation (solution): 80° C., 46 hours

Question: For CNC[C@H](O)c1ccc(O)c(O)c1 [epinephrine malonate], which Appearance [1, 3] is on record?
Answer: Colorless liquid

Question: What about the Purity [1, 3] of the same compound?
Answer: 91.96%

Question: And the Appearance [1, 4]?
Answer: Brown liquid

Question: And the Purity [1, 4]?
Answer: 98.68%

Question: What about the Appearance [1, 5] of the same compound?
Answer: Colorless liquid

Question: And the Purity [1, 5]?
Answer: 97.04%

Question: What about the Appearance ([1]; Standard (no degradation)) of the same compound?
Answer: Off-white powder

Question: What about the Purity ([1]; Standard (no degradation)) of the same compound?
Answer: 99.89%

Question: What about the Appearance [1, 6] of the same compound?
Answer: Off-white powder

Question: And the Purity [1, 6]?
Answer: 99.10%

Question: What about the Appearance [1, 7] of the same compound?
Answer: Colorless liquid

Question: What about the Purity [1, 7] of the same compound?
Answer: 96.04%

Question: And the Appearance ([2]; 30° C., month 0)?
Answer: Off-white

Question: And the “DSC Offset” value ([2]; 30° C., month 0)?
Answer: Offset: 104.25 °C

Question: And the “DSC Onset” value ([2]; 30° C., month 0)?
Answer: Onset: 98.8 °C

Question: And the Purity ([2]; 30° C., month 0)?
Answer: 99.96%

Question: What about the TGA ([2]; 30° C., month 0) of the same compound?
Answer: 0.32%

Question: And the Appearance ([2]; 30° C., month 1)?
Answer: Off-white

Question: What about the “DSC Offset” value ([2]; 30° C., month 1) of the same compound?
Answer: Offset: 103.99 °C

Question: What about the “DSC Onset” value ([2]; 30° C., month 1) of the same compound?
Answer: Onset: 98.80 °C

Question: What about the Purity ([2]; 30° C., month 1) of the same compound?
Answer: 99.96%

Question: And the “Residual Material (%)” value ([2]; 30° C., month 1)?
Answer: 100.31%

Question: What about the TGA ([2]; 30° C., month 1) of the same compound?
Answer: 0.60%

Question: And the Appearance ([2]; 30° C., month 2)?
Answer: Off-white

Question: And the “DSC Offset” value ([2]; 30° C., month 2)?
Answer: Offset: 104.47 °C

Question: What about the “DSC Onset” value ([2]; 30° C., month 2) of the same compound?
Answer: Onset: 99.27 °C

Question: What about the Purity ([2]; 30° C., month 2) of the same compound?
Answer: 99.96%

Question: And the “Residual Material (%)” value ([2]; 30° C., month 2)?
Answer: 99.42%

Question: What about the TGA ([2]; 30° C., month 2) of the same compound?
Answer: 0.19%

Question: What about the Appearance ([2]; 30° C., month 3) of the same compound?
Answer: Off-white

Question: What about the “DSC Offset” value ([2]; 30° C., month 3) of the same compound?
Answer: Offset: 104.23 °C

Question: And the “DSC Onset” value ([2]; 30° C., month 3)?
Answer: Onset: 98.72 °C

Question: And the Purity ([2]; 30° C., month 3)?
Answer: 99.96%

Question: And the “Residual Material (%)” value ([2]; 30° C., month 3)?
Answer: 99.44%

Question: And the TGA ([2]; 30° C., month 3)?
Answer: 0.90%

Question: And the Appearance ([2]; 30° C., month 4)?
Answer: Off-white

Question: And the “DSC Offset” value ([2]; 30° C., month 4)?
Answer: Offset: 103.62 °C

Question: And the “DSC Onset” value ([2]; 30° C., month 4)?
Answer: Onset: 99.12 °C

Question: What about the Purity ([2]; 30° C., month 4) of the same compound?
Answer: 99.73%

Question: And the “Residual Material (%)” value ([2]; 30° C., month 4)?
Answer: 99.31%

Question: And the TGA ([2]; 30° C., month 4)?
Answer: 0.69%

Question: And the Appearance ([2]; 30° C., month 5)?
Answer: Off-white

Question: What about the “DSC Offset” value ([2]; 30° C., month 5) of the same compound?
Answer: Offset: 103.92 °C

Question: And the “DSC Onset” value ([2]; 30° C., month 5)?
Answer: Onset: 98.71 °C

Question: And the Purity ([2]; 30° C., month 5)?
Answer: 99.96%

Question: And the “Residual Material (%)” value ([2]; 30° C., month 5)?
Answer: 100.22%

Question: What about the TGA ([2]; 30° C., month 5) of the same compound?
Answer: 0.51%

Question: What about the Appearance ([2]; 40° C., month 0) of the same compound?
Answer: Off-white

Question: What about the “DSC Offset” value ([2]; 40° C., month 0) of the same compound?
Answer: Offset: 104.25 °C

Question: And the “DSC Onset” value ([2]; 40° C., month 0)?
Answer: Onset: 98.8 °C

Question: What about the Purity ([2]; 40° C., month 0) of the same compound?
Answer: 99.96%

Question: And the TGA ([2]; 40° C., month 0)?
Answer: 0.32%

Question: What about the Appearance ([2]; 40° C., month 1) of the same compound?
Answer: Off-white

Question: What about the “DSC Offset” value ([2]; 40° C., month 1) of the same compound?
Answer: Offset: 104.41 °C

Question: What about the “DSC Onset” value ([2]; 40° C., month 1) of the same compound?
Answer: Onset: 98.89 °C

Question: And the Purity ([2]; 40° C., month 1)?
Answer: 99.97%

Question: And the “Residual Material (%)” value ([2]; 40° C., month 1)?
Answer: 99.59%

Question: And the TGA ([2]; 40° C., month 1)?
Answer: 0.16%

Question: What about the Appearance ([2]; 40° C., month 2) of the same compound?
Answer: Off-white

Question: And the “DSC Offset” value ([2]; 40° C., month 2)?
Answer: Offset: 104.05 °C

Question: What about the “DSC Onset” value ([2]; 40° C., month 2) of the same compound?
Answer: Onset: 98.78 °C

Question: And the Purity ([2]; 40° C., month 2)?
Answer: 99.96%

Question: What about the “Residual Material (%)” value ([2]; 40° C., month 2) of the same compound?
Answer: 100.11%

Question: What about the TGA ([2]; 40° C., month 2) of the same compound?
Answer: 0.13%

Question: What about the Appearance ([2]; 40° C., month 3) of the same compound?
Answer: Off-white

Question: What about the “DSC Offset” value ([2]; 40° C., month 3) of the same compound?
Answer: Offset: 103.33 °C

Question: And the “DSC Onset” value ([2]; 40° C., month 3)?
Answer: Onset: 98.69 °C

Question: What about the Purity ([2]; 40° C., month 3) of the same compound?
Answer: 99.96%

Question: What about the “Residual Material (%)” value ([2]; 40° C., month 3) of the same compound?
Answer: 98.97%

Question: And the TGA ([2]; 40° C., month 3)?
Answer: 0.51%

Question: What about the Appearance ([2]; 40° C., month 5) of the same compound?
Answer: Off-white

Question: What about the “DSC Offset” value ([2]; 40° C., month 5) of the same compound?
Answer: Offset: 103.83 °C

Question: What about the “DSC Onset” value ([2]; 40° C., month 5) of the same compound?
Answer: Onset: 98.49 °C

Question: What about the Purity ([2]; 40° C., month 5) of the same compound?
Answer: 99.96%

Question: What about the “Residual Material (%)” value ([2]; 40° C., month 5) of the same compound?
Answer: 99.68%

Question: And the TGA ([2]; 40° C., month 5)?
Answer: 0.46%
